Values quoted from earlier work, collected in publication PMC4734747 (Journal of nuclear medicine : official publication, Society …, 2013).

Assays:
P-gp = settings: rodents; ref 19 (Verbeek et al.)
P-gp at the human BBB [1] = settings: brain, humans, no P-gp inhibition
P-gp at the BBB = settings: brain, macaques, no P-gp inhibition
P-gp at the human BBB [2] = settings: tariquidar 6 mg/kg; not necessarily the maximal increase

CNCCCC(C#N)(c1ccc(OC)c(OC)c1)C(C)C (stereo not shown) [D617]
affinity to P-gp relative to verapamil (P-gp): lower affinity to P-gp than does verapamil

CNC(=O)C(CCN1CCC(O)(c2ccc(Cl)cc2)CC1)(c1ccccc1)c1ccccc1 [dLOP, N-desmethyl-loperamide]
mean baseline K1 (P-gp at the human BBB [1]): 0.015 mL/min/g | mean baseline K1 (P-gp at the BBB): 0.04 mL/min/g | increase in the brain distribution (reported by K1) after P-gp inhibition (P-gp at the human BBB [2]): 4 fold
